In BindingDB's records for patent US12384753 (Enanta Pharmaceuticals, 2025) one finds IC50 data, which are given here for three compounds.

Molecules are shown by their SMILES. pIC50: −log10 of the molar value.

The assay deals with T1, 17-beta-hydroxysteroid dehydrogenase 13 (Homo sapiens, UniProt Q7Z5P4).
T1 sequence (Q7Z5P4 whole entry): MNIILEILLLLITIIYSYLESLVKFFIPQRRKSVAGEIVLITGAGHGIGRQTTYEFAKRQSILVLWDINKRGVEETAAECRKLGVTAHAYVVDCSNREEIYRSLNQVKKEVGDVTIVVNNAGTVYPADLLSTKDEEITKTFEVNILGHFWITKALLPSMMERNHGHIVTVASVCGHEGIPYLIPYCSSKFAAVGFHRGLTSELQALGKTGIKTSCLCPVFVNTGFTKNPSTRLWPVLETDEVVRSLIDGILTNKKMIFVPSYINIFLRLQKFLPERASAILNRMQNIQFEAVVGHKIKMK
The experiment in a line: HSD17B13 rapid-fire mass spectrometry assay (RF/MS assay). The source says: Recombinant human HSD17B13 was expressed and purified from sf9 cells at Charles River Labs (Saffron Walden, UK). Leukotriene B4 (Catalog #71160-24-2) and 12-oxoleukotriene B4 (Catalog #20140) were purchased from Cayman Chemicals (Ann Arbor, Michigan.). NAD+ (Catalog #N8285), BSA (Catalog #A7030), DMSO (Catalog #D2650), and Tween-20 (Catalog #11332465001) were purchased from Sigma (St. Louis, MO). Formic acid (Catalog #28905) was from ThermoFisher Scientific and 384 deep well PP microplates (Catalog #784261) were from Greiner Bio-One. In a typical IC50 assay performed in a 384w PP microplate, test compounds (0-100 μM) were incubated with HSD17B13 (80 nM), LTB4 (10 μM), and NAD+ (0.5 mM) in 10 μL assay buffer (20 mM Tris (pH 7.5), BSA (0.005%), and Tween-20 (0.01%)) at RT for 3 h. The assays were quenched by adding 20 μL of 0.15% aqueous formic acid and the plates were frozen at −80° C. RF/MS analysis was performed at PureHoney Technologies (Billerica, MA) on a RapidFire RF300 system (Agilent Technologies, Inc.) coupled to an API 4000 triple quadrupole mass spectrometer (Sciex) equipped with Agilent RapidFire cartridge type A (C4). The mobile phase was 0.09% formic acid and 0.01% trifluoracetic acid in water (Buffer A) and 0.09% formic acid and 0.01% trifluoracetic acid in 80% aqueous acetonitrile (Buffer B). The RapidFire method conditions were the following: 250 ms aspirate, 3000 ms load/desalt, 4000 ms elute, and 500 ms re-equilibrate. RF-MS/MS was performed in negative polarity (−4500 V), the source temperature was 650° C., and gas 1 and gas 2 settings for nitrogen were set to 50. The curtain gas and collision gas were also nitrogen and were set to 20 and 12, respectively. Leukotriene B4 (335.3) and 12-oxoLeukotriene B4 (333.3) SRM transitions were optimized with Discovery Quant software and extracted ion counts for these analytes were determined. Data Analysis. HSD17B13 enzyme activity was measured as percent conversion of extracted ion counts and normalized to high and low controls to determine percent residual activity at various concentrations of test compounds. […]

As for `COc1cc(C(=O)O)ccc1NS(=O)(=O)c1coc(-c2ccc(Cl)cc2)n1` [US12384753, Example 418], the pIC50 was > 7.00.

For `COc1cc(C(=O)O)ccc1NS(=O)(=O)c1coc(-c2ccc(F)cc2)n1` [US12384753, Example 417], the negative-log IC50 (pIC50) is > 7.00.

As to `COc1ccc(C#Cc2nc(S(=O)(=O)Nc3ccc(C(=O)O)cc3OC)cs2)c(C2CC2)c1` [US12384753, Example 396], the negative logarithm of the IC50 (pIC50) was > 7.00.
